Results on 2 compounds are retold here after US9233090B2, “Cysteine and food intake” (Nestec S.A., priority 2010, dated 2016).

Common to all, as to format: in vivo, rat
In assay [1] the test system is old rats. Put plainly: Food intake of old rats fed supplemented diets for 14 weeks. Conditions: for decrease in food intake per week: male Wistar rats, supplemented diet from age 21 months for 14 weeks, linear regression. The text has this:
(§1) A cohort of male Wistar rats born and breed in a non-specific-pathogen-free animal facility (Unité de Nutrition Comparée, INRA Theix) was used for the study. When rats were 18 month old they were weighted monthly to evaluate their body weight change and blood was sampled in order to quantify inflammatory markers (acute phase proteins: α2-macroglobulin and fibrinogen). At the age of 21 months, rats were divided in two groups matched for body weight, body weight loss, and inflammatory status. Rats were fed with supplemented diets, starting at the age of 21 months and for 14 weeks. The cysteine diet consisted in the commercial pelleted diet A04 (SAFE/UAR, Scientific Animal Food and Engineering, Villemoisson-sur-Orge, France) supplemented with 4.0 g of L-cysteine (Sigma) per kg, and the control diet was supplemented with 2.9 g of L-alanine (Jerafrance) per kg (iso-nitrogenous diets). Experimental diets have been prepared at the Unite Préparation Aliments Expérimentaux, INRA Jouy-en-Josas.
Food intake (FIG. 4) decreased with time and was lower for the alanine diet.

Assay [2] in a line: Skeletal muscle and organ weights of old rats fed supplemented diets. The settings on record: for Colon weight / EDL weight / Gastrocnemius weight / Kidneys weight / Liver weight / Small intestine weight / Soleus weight / Tibialis weight: end of supplementation.
Excerpt: as §1

Assay [3] has as its system old rats. Put plainly: Survival of old rats fed supplemented diets (Kaplan-Meier, log-rank test). Conditions: male Wistar rats, supplemented diet from age 21 months for 14 weeks; log-rank test=0.054, P=0.816.
Excerpt: as §1
Survival curves were generated by Kaplan-Meier method (FIG. 2) and compared by the log-rank test in order to analyze the effect of cysteine supplementation on mortality.

The nature of assay [4]: Body weight of old rats fed supplemented diets. Conditions: for Final BW: body weight at end of supplementation; for Initial BW: body weight at start of supplementation (baseline), age 21 months; for BW change: rat, in vivo.
Excerpt: as §1
The decrease accelerated at the end of the experiment since body weights of the two last weeks were different from each of the previous ones.

`N[C@@H](CS)C(=O)O` [Cysteine, L-cysteine]: the “effect on decrease in food intake associated with aging” value in the assay with old rats [1] (4 g cysteine per kg supplemented diet, rats about 22.5 months old) is listed as “blunts the decrease in food intake”. For the same compound, the “decrease in food intake per week” value in the assay with old rats [1] is on record as “unchanged”. For the same compound, the “liver weight compared with control rats” value in assay [2] (cysteine supplemented rats vs alanine control) is recorded as “higher liver weight than control rats”. In assay [2], this compound came in with a Colon weight of 2.76 ± 0.07 g, an EDL weight of 228 ± 4 mg, a Gastrocnemius weight of 2.51 ± 0.04 g and a Kidneys weight of 4.31 ± 0.17 g. In assay [2], this compound registered a Liver weight of 20.0 ± 0.4 g, a Small intestine weight of 12.0 ± 0.2 g, a Soleus weight of 178 ± 4 mg and a Tibialis weight of 889 ± 18 mg. Further, the mortality rate entry with old rats [3] was “did not change”. For the same compound, in assay [4], the “Final BW” value is given as 613 ± 12 g, the “Initial BW” value stood at 661 ± 10 g and the BW change is given as −6.27 ± 1.18 %/13 wk.
Turning to `C[C@H](N)C(=O)O` [Alanine, L-alanine, reference compound], the “decrease in food intake per week” value in the assay on old rats [1] is on record as 0.96 % per week. Further, in assay [2], the Colon weight turned out to be 2.68 ± 0.06 g, the EDL weight worked out at 222 ± 4 mg, the Gastrocnemius weight amounted to 2.51 ± 0.04 g and the Kidneys weight was found to be 4.32 ± 0.19 g. In assay [2], this compound registered a Liver weight of 18.4 ± 0.5 g, a Small intestine weight of 11.4 ± 0.3 g, a Soleus weight of 177 ± 3 mg and a Tibialis weight of 888 ± 16 mg. Further, in assay [4], the “Final BW” value came to 595 ± 13 g, the “Initial BW” value came out at 657 ± 10 g and the BW change is −7.03 ± 1.60 %/13 wk.
